Measurements reported in ChEMBL document CHEMBL1144613, “Substituted acyclic sulfonamides as human cannabinoid-1 receptor inverse agonists” (Bioorg Med Chem Lett, 2007).

Assays:
[1] = target: Cannabinoid receptor 2 (Homo sapiens, UniProt P34972); experiment: Displacement of [3H]CP-55940 from human recombinant CB2 receptor expressed in CHO cells; format: cell-based
[2] = target: Cannabinoid receptor 1 (Homo sapiens, UniProt P21554); experiment: biochemical; format: cell-based, CHO
[3] = Brain concentration in rat at 1 mg/kg, iv at 0.25 h; format: ADME, organism-based; design: dose 1 mg/kg, route intravenous; settings: read-out: Activity
[4] = Brain concentration in rat at 1 mg/kg, iv at 1 h; format: ADME, organism-based; design: dose 1 mg/kg, route intravenous; settings: read-out: Activity
[5] = Volume of distribution at steady state in rat at 1 mg/kg, iv or 2 mg/kg, po; format: ADME, organism-based; settings: in vivo, read-out: Vdss
[6] = Half life in rat at 1 mg/kg, iv or 2 mg/kg, po; format: ADME, organism-based; settings: in vivo
[7] = Oral bioavailability in rat at 1 mg/kg, iv or 2 mg/kg, po; format: ADME, organism-based; settings: in vivo
[8] = Plasma clearance in rat at 1 mg/kg, iv or 2 mg/kg, po; format: ADME, organism-based
[9] = Cmax in rat at 1 mg/kg, iv or 2 mg/kg, po; format: ADME, organism-based; settings: in vivo
[10] = Plasma concentration in rat at 1 mg/kg, iv at 0.25 h; format: ADME, organism-based; design: dose 1 mg/kg, route intravenous
[11] = Plasma concentration in rat at 1 mg/kg, iv at 1 h; format: ADME, organism-based; design: dose 1 mg/kg, route intravenous
[12] = Plasma concentration in rat at 1 mg/kg, iv at 2 hrs; format: ADME, organism-based; design: dose 1 mg/kg, route intravenous
[13] = Brain concentration in rat at 1 mg/kg, iv at 2 hrs; format: ADME, organism-based; design: dose 1 mg/kg, route intravenous; settings: read-out: Activity
[14] = Ratio of drug level in brain to plasma in rat at 1 mg/kg, iv at 0.25 h; format: ADME, organism-based; design: dose 1 mg/kg, route intravenous
[15] = Ratio of drug level in brain to plasma in rat at 1 mg/kg, iv at 1 h; format: ADME, organism-based; design: dose 1 mg/kg, route intravenous
[16] = Ratio of drug level in brain to plasma in rat at 1 mg/kg, iv at 2 hrs; format: ADME, organism-based; design: dose 1 mg/kg, route intravenous
[17] = tested on: Rattus norvegicus; experiment: Inhibition of CP-55940-induced hypothermia in rat at 3 mg/kg, iv after 30 mins; format: functional; settings: 0.5 h
[18] = target: Cannabinoid receptor 1 (Rattus norvegicus, UniProt P20272); experiment: Binding affinity at rat CB1 receptor
Sequence of Cannabinoid receptor 1 (Rattus norvegicus, UniProt P20272) (P20272 whole entry): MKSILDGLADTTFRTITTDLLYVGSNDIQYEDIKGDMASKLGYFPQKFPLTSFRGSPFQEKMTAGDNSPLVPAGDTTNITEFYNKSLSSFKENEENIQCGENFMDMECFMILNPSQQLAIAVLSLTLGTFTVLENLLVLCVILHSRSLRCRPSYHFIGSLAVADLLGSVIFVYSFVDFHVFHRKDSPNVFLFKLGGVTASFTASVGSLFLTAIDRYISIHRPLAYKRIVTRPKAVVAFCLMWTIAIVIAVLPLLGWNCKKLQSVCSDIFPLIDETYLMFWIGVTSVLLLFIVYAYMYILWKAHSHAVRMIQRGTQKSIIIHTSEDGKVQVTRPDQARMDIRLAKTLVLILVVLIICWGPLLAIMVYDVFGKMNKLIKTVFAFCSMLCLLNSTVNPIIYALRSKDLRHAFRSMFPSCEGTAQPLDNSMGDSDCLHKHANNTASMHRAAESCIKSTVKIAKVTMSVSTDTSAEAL

Sequence of Cannabinoid receptor 1 (Homo sapiens, UniProt P21554) (P21554 whole entry): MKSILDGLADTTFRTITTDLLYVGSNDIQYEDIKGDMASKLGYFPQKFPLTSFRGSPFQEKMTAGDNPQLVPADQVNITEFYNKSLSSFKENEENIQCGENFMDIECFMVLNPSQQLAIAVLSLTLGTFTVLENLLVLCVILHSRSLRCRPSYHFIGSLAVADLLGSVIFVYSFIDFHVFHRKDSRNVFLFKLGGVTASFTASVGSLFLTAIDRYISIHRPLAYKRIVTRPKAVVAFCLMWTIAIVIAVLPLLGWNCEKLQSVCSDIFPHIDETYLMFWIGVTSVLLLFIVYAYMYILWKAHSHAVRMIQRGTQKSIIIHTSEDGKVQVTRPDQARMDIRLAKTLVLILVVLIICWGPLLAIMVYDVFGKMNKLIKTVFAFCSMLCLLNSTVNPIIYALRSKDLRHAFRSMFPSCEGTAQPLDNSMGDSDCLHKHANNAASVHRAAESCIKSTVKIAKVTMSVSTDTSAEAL
Sequence of Cannabinoid receptor 2 (P34972 whole entry): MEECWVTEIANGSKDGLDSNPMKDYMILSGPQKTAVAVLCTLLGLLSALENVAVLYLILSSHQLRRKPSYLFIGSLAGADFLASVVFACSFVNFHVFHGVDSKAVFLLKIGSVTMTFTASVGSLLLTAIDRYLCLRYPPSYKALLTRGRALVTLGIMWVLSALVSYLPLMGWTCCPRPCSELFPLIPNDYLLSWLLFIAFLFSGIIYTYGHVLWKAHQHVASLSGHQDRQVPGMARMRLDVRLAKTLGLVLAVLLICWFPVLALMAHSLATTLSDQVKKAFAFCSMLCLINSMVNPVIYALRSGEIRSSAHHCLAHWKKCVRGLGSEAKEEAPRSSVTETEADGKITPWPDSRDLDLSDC

IC50 [1] [nM] | IC50 [2] [nM] | Compound | further results
1490 | 9.7 | C[C@H](NS(=O)(=O)c1ccccc1)[C@@H](Cc1ccc(Cl)cc1)c1cccc(C#N)c1 | –
1920 | 16 | C[C@H](NS(=O)(=O)Cc1ccccc1Cl)[C@@H](Cc1ccc(Cl)cc1)c1cccc(C#N)c1 | –
1440 | 75.2 | CCCCS(=O)(=O)N[C@@H](C)[C@@H](Cc1ccc(Cl)cc1)c1cccc(C#N)c1 | –
> 2000 | > 2000 | C[C@H](NS(C)(=O)=O)[C@@H](Cc1ccc(Cl)cc1)c1cccc(C#N)c1 | –
1760 | 15.4 | C[C@H](NS(=O)(=O)Cc1ccc(Cl)cc1)[C@@H](Cc1ccc(Cl)cc1)c1cccc(C#N)c1 | –
904 | 19.3 | C[C@H](NS(=O)(=O)CCc1ccccc1)[C@@H](Cc1ccc(Cl)cc1)c1cccc(C#N)c1 | –
454 | 21.7 | C[C@H](NS(=O)(=O)c1ccc(Cl)cc1)[C@@H](Cc1ccc(Cl)cc1)c1cccc(C#N)c1 | –
668 | 12.3 | C[C@H](NS(=O)(=O)c1ccccc1Cl)[C@@H](Cc1ccc(Cl)cc1)c1cccc(C#N)c1 | –
998 | 11.4 | C[C@H](NS(=O)(=O)c1cc(Cl)cc(Cl)c1)[C@@H](Cc1ccc(Cl)cc1)c1cccc(C#N)c1 | –
> 2000 | 20.9 | C[C@H](NS(=O)(=O)Cc1ccccc1)[C@@H](Cc1ccc(Cl)cc1)c1cccc(C#N)c1 | –
> 2000 | 1680 | C[C@H](NS(=O)(=O)C(C)(C)C)[C@@H](Cc1ccc(Cl)cc1)c1cccc(C#N)c1 | –
2000 | 53.5 | C[C@H](NS(=O)(=O)Cc1cccc(Cl)c1)[C@@H](Cc1ccc(Cl)cc1)c1cccc(C#N)c1 | –
283 | 29.8 | C[C@H](NS(=O)(=O)c1c(Cl)cccc1Cl)[C@@H](Cc1ccc(Cl)cc1)c1cccc(C#N)c1 | –
202 | 10.7 | C[C@H](NS(=O)(=O)c1cccc(Cl)c1Cl)[C@@H](Cc1ccc(Cl)cc1)c1cccc(C#N)c1 | –
808 | 13.9 | C[C@H](NS(=O)(=O)c1cccc(Cl)c1)[C@@H](Cc1ccc(Cl)cc1)c1cccc(C#N)c1 | –

The remaining lines, values behind:

Compound | IC50 [1] [nM] | IC50 [2] [nM] | further results
C[C@H](NS(=O)(=O)c1ccc2ccccc2c1)[C@@H](Cc1ccc(Cl)cc1)c1cccc(C#N)c1 | 1090 | 15 | –
C[C@H](NC(=O)CCc1ccccc1)[C@@H](Cc1ccc(Cl)cc1)c1cccc(C#N)c1 | 1370 | 38.3 | –
C[C@H](NC(=O)c1cc(Cl)cc(Cl)c1)[C@@H](Cc1ccc(Cl)cc1)c1cccc(C#N)c1 | 181 | 282 | –
C[C@H](NS(=O)(=O)c1cc(Cl)c(Cl)cc1Cl)[C@@H](Cc1ccc(Cl)cc1)c1cccc(C#N)c1 | 622 | 16 | –
C[C@H](NS(=O)(=O)c1cccc(-c2ccccc2)c1)[C@@H](Cc1ccc(Cl)cc1)c1cccc(C#N)c1 | 394 | 2.8 | concentration at 0.25 h [3]: 146 nM; concentration at 1 h [4]: 92 nM; Vd [5]: 6.9 L/kg; half-life [6]: 8.4 h; bioavailability [7]: 48%; clearance [8]: 10.6 mL/min/kg; Cmax [9]: 343 nM; concentration at 0.25 h [10]: 220 nM; concentration at 1 h [11]: 113 nM; concentration at 2 h [12]: 54 nM; concentration at 2 h [13]: 54 nM; Kp at 0.25 h [14]: 0.66; Kp at 1 h [15]: 0.82; Kp at 2 h [16]: 1; inhibition in vivo at 3 mg/kg [17]: 48.9%; IC50 [18]: 2.3 nM
C[C@H](NC(=O)c1c(Cl)cccc1Cl)[C@@H](Cc1ccc(Cl)cc1)c1cccc(C#N)c1 | 945 | 37.2 | –
C[C@H](NC(=O)c1ccccc1)[C@@H](Cc1ccc(Cl)cc1)c1cccc(C#N)c1 | 1910 | 845 | –
C[C@H](NS(=O)(=O)/C=C/c1ccccc1)[C@@H](Cc1ccc(Cl)cc1)c1cccc(C#N)c1 | 1080 | 41.8 | –
C[C@H](NS(=O)(=O)c1cc(C(F)(F)F)cc(C(F)(F)F)c1)[C@@H](Cc1ccc(Cl)cc1)c1cccc(C#N)c1 | 1760 | 3.2 | –
C[C@H](NS(=O)(=O)c1cccc2ccccc12)[C@@H](Cc1ccc(Cl)cc1)c1cccc(C#N)c1 | 1120 | 21.1 | –
C[C@H](NS(=O)(=O)c1cc(F)cc(F)c1)[C@@H](Cc1ccc(Cl)cc1)c1cccc(C#N)c1 | 1080 | 5.1 | –
C[C@H](NS(=O)(=O)c1ccc(Cl)cc1Cl)[C@@H](Cc1ccc(Cl)cc1)c1cccc(C#N)c1 | 301 | 7.1 | –
C[C@H](NS(=O)(=O)c1cc(Cl)ccc1Cl)[C@@H](Cc1ccc(Cl)cc1)c1cccc(C#N)c1 | 498 | 7.4 | –
C[C@@H]([C@@H](Cc1ccc(Cl)cc1)c1cccc(C#N)c1)N(C)S(=O)(=O)c1cc(Cl)cc(Cl)c1 | > 2000 | > 2000 | –
C[C@@H]([C@@H](Cc1ccc(Cl)cc1)c1cccc(C#N)c1)N(C)S(C)(=O)=O | > 2000 | > 2000 | –
C[C@H](NC(=O)Cc1ccccc1)[C@@H](Cc1ccc(Cl)cc1)c1cccc(C#N)c1 | > 2000 | 44.1 | –
C[C@H](NS(=O)(=O)c1ccc(-c2ccccc2)cc1)[C@@H](Cc1ccc(Cl)cc1)c1cccc(C#N)c1 | 406 | 23 | –
Cc1c(C(=O)NN2CCCCC2)nn(-c2ccc(Cl)cc2Cl)c1-c1ccc(Cl)cc1 [RIMONABANT] | – | – | inhibition in vivo at 3 mg/kg [17]: 97.9%
